Patent EP1951308B1, “COMBINATION PREPARATIONS CONTAINING PHYSIOLOGICAL CELL MEMBRANE CONSTITUENTS INCLUDING PHOSPHATIDYLSERINE, CHOLINE AND A PYRIMIDINE NUCLEOSIDE/NUCLEOTIDE” (Susilo, Gisela, priority 2005, dated 2007)
Entries after “also recorded” stand apart in the source; their conditions may differ.

Tested on: elektrische Hirnaktivität
Assay: EEG recording (CATEEM system, 17 electrodes, 10/20 system) of electrical brain activity after a single oral intake, compared with placebo; studies 1, 3, 4 and 5
Type: in vivo, gesunden Testpersonen
Details: for Hirnaktivität / Hirnleistung / Gehirnfunktion (Stimulierung): conclusion in words drawn from the EEG results; for delta Aktivität in Bezug auf die Referenz (Placebo) / Veränderung der delta Aktivität im Vergleich zu Placebo: oral, Augen offen; for Veränderung der delta Aktivität im Vergleich zu Placebo: during 4 Stunden after intake, studies 3-5; for neuro-regenerierende Wirkung: summary of Studienbeispiele 1 - 5, EEG, single oral dose; for delta Power (delta Aktivität): study 1, recording condition not stated, 1-4 h after oral intake

For `C[N+](C)(C)CCOP(=O)([O-])OP(=O)(O)OC[C@H]1O[C@@H](n2ccc(N)nc2=O)[C@H](O)[C@@H]1O` [CDP-Cholin, Cytidindiphosphocholin], the “Hirnaktivität / Hirnleistung / Gehirnfunktion (Stimulierung)” value was “nicht bzw. nur leicht jedoch nicht signifikant steigern”, the “delta Aktivität in Bezug auf die Referenz (Placebo)” value (“delta Aktivität … (Placebo)” for short) (1 h after intake) was 98% and the “delta Aktivität … (Placebo)” value (2h after intake) was 102%. For the same compound, the “delta Aktivität … (Placebo)” value (4h after intake) was 96%, the “Veränderung der delta Aktivität im Vergleich zu Placebo” value (result in words) was “geringfügige aber im Vergleich zum Placebo-Arm nicht signifikante Veränderung” and the “neuro-regenerierende Wirkung” value was “-”.

In the case of Phosphatidylserin, the “Hirnaktivität / Hirnleistung / Gehirnfunktion (Stimulierung)” value is reported as “nicht bzw. nur leicht jedoch nicht signifikant steigern; also recorded: nicht beobachtet”, the “delta Aktivität … (Placebo)” value (1 h after intake) is reported as 96% and the “delta Aktivität … (Placebo)” value (2h after intake) is reported as 94%. The “delta Aktivität … (Placebo)” value (4h after intake) was 94%, the “Veränderung der delta Aktivität im Vergleich zu Placebo” value (result in words) was “keinen signifikanten Veränderungen” and the “Beta-Aktivitäten (beta Power)” value (result in words, study 1) was “nur bei einem Messzeitpunkt nämlich 3 Stunden nach Verabreichung des Wirkstoffs eine statistisch signifikante Abnahme”. The “alpha Power (alpha Aktivität)” value (result in words, study 1) was “leichter aber nicht signifikanter Zunahme”, the “delta Aktivitäten” value (result in words, study 1, Augen offen) was “während der zweiten und dritten Stunde vermindert, aber keine statistische Signifikanz” and the “delta Power (delta Aktivität)” value (result in words) was “Abnahme des delta Power”. The “delta Power (delta Aktivität)” value (result in words, listed as INDO I) was “Abnahme der elektrischen delta Aktivität (delta Power), die jedoch nur 4 Stunden nach Applikation statistisch signifikant war” and the “neuro-regenerierende Wirkung” value was “-”.
